From PubChem BioAssay AID1963433 (Molecular Pharmacology Branch, DTP, NCI, 2024)

System: 772245-204-R-J1-PDC complex spheroid growth
Test: Anticancer human tumor 772245-204-R-J1-PDC patient-derived rhabdomyosarcoma cell line growth inhibition [Asc]
Conditions: for IC50: curve of first compound; for viability, T/C: stronger effect = lower value
Method in brief: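 Tumor cells were grown as multicellular spheroids with stromal HUVEC and mesenchymal stem cells and treated singly or in combination. Concentrations fell in half-log steps from the clinical Cmax, or from 10 microM where none was known.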

[1] = second compound 0.1 µM, first compound 0.00316 µM
[2] = second compound 0.1 µM, first compound 0.01 µM
[3] = second compound 0.1 µM, first compound 0.0316 µM
[4] = second compound 0.1 µM, first compound 0.1 µM
[5] = second compound 0.1 µM, first compound 0.316 µM
[6] = second compound 0.1 µM, first compound 1 µM
[7] = second compound 0.316 µM, first compound 0.00316 µM
[8] = second compound 0.316 µM, first compound 0.01 µM
[9] = second compound 0.316 µM, first compound 0.0316 µM
[10] = second compound 0.316 µM, first compound 0.1 µM
[11] = second compound 0.316 µM, first compound 0.316 µM
[12] = second compound 0.316 µM, first compound 1 µM
[13] = second compound 1 µM, first compound 0.00316 µM
[14] = second compound 1 µM, first compound 0.01 µM
[15] = second compound 1 µM, first compound 0.0316 µM
[16] = second compound 1 µM, first compound 0.1 µM
[17] = second compound 1 µM, first compound 0.316 µM
[18] = second compound 1 µM, first compound 1 µM
[19] = second compound 3.16 µM, first compound 0.00316 µM
[20] = second compound 3.16 µM, first compound 0.01 µM
[21] = second compound 3.16 µM, first compound 0.0316 µM
[22] = second compound 3.16 µM, first compound 0.1 µM
[23] = second compound 3.16 µM, first compound 0.316 µM
[24] = second compound 3.16 µM, first compound 1 µM
[25] = second compound 10 µM, first compound 0.00316 µM
[26] = second compound 10 µM, first compound 0.01 µM
[27] = second compound 10 µM, first compound 0.0316 µM
[28] = second compound 10 µM, first compound 0.1 µM
[29] = second compound 10 µM, first compound 0.316 µM
[30] = second compound 10 µM, first compound 1 µM
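Also: compound exposure lasted seven days.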
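For viability, T/C in this document: 100% = DMSO vehicle control viability.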

SMILES | IC50 (second compound 0.1 µM) [nM] | IC50 (second compound 0.316 µM) [nM] | IC50 (second compound 1 µM) [nM] | IC50 (second compound 3.16 µM) [nM] | IC50 (second compound 10 µM) [nM] | viability, T/C [1] [%] | viability, T/C [2] [%] | viability, T/C [3] [%] | viability, T/C [4] [%] | viability, T/C [5] [%] | viability, T/C [6] [%] | viability, T/C [7] [%] | viability, T/C [9] [%] | viability, T/C [10] [%] | viability, T/C [15] [%] | viability, T/C [16] [%] | viability, T/C [21] [%] | viability, T/C [22] [%] | viability, T/C [27] [%] | viability, T/C [28] [%] | further results
CCN1CCN(Cc2ccc(Nc3ncc(F)c(-c4cc(F)c5nc(C)n(C(C)C)c5c4)n3)nc2)CC1 + Cc1c(S(C)(=O)=O)c(-c2cc(F)cc(N3CCN(c4ccc(NS(=O)(=O)c5ccc(NC(CCN6CCC(C(=O)OCCCP(=O)(O)O)CC6)CSc6ccccc6)c(S(=O)(=O)C(F)(F)F)c5)cc4)CC3)c2)c(-c2ccc(Cl)cc2)n1C(C)C | > 1000 | 436 | 23.9 | < 3.16 | < 3.16 | 77.4 | 78.2 | 77.3 | 82.1 | 83.4 | 74.7 | 68.9 | 60.5 | 58.5 | 50 | 37.7 | 42 | 32.6 | 41 | 29.9 | viability, T/C [8]: 58.1%; viability, T/C [11]: 51.7%; viability, T/C [12]: 45.5%; viability, T/C [13]: 53.9%; viability, T/C [14]: 52.9%; viability, T/C [17]: 22.8%; viability, T/C [18]: 9.85%; viability, T/C [19]: 49%; viability, T/C [20]: 42.5%; viability, T/C [23]: 15.1%; viability, T/C [24]: 5.17%; viability, T/C [25]: 49.7%; viability, T/C [26]: 42.3%; viability, T/C [29]: 15.5%; viability, T/C [30]: 3.23%
Cn1ncnc1[C@H]1c2n[nH]c(=O)c3cc(F)cc(c23)N[C@@H]1c1ccc(F)cc1 + Cc1c(S(C)(=O)=O)c(-c2cc(F)cc(N3CCN(c4ccc(NS(=O)(=O)c5ccc(NC(CCN6CCC(C(=O)OCCCP(=O)(O)O)CC6)CSc6ccccc6)c(S(=O)(=O)C(F)(F)F)c5)cc4)CC3)c2)c(-c2ccc(Cl)cc2)n1C(C)C | > 100 | 3.84 | 1.23 | < 0.316 | < 0.316 | 70.5 | 63.3 | 58.9 | 55 |  |  | 53.3 | 29.2 | 23.6 | 25.8 | 15.2 | 12.5 | 10.6 | 11.1 | 12 | viability, T/C (second compound 0.1 µM, first compound 0.000316 µM): 73.2%; viability, T/C (second compound 0.1 µM, first compound 0.001 µM): 77.1%; viability, T/C (second compound 0.316 µM, first compound 0.000316 µM): 61.4%; viability, T/C (second compound 0.316 µM, first compound 0.001 µM): 58.8%; viability, T/C [8]: 37%; viability, T/C (second compound 1 µM, first compound 0.000316 µM): 47.1%; viability, T/C (second compound 1 µM, first compound 0.001 µM): 58.7%; viability, T/C [13]: 37%; viability, T/C [14]: 15.5%; viability, T/C (second compound 3.16 µM, first compound 0.000316 µM): 34.2%; viability, T/C (second compound 3.16 µM, first compound 0.001 µM): 44.3%; viability, T/C [19]: 33.3%; viability, T/C [20]: 19.7%; viability, T/C (second compound 10 µM, first compound 0.000316 µM): 40.9%; viability, T/C (second compound 10 µM, first compound 0.001 µM): 34.6%; viability, T/C [25]: 27.7%; viability, T/C [26]: 13.2%
O=C(c1cc(Cc2n[nH]c(=O)c3ccccc23)ccc1F)N1CCN(C(=O)C2CC2)CC1 + Cc1c(S(C)(=O)=O)c(-c2cc(F)cc(N3CCN(c4ccc(NS(=O)(=O)c5ccc(NC(CCN6CCC(C(=O)OCCCP(=O)(O)O)CC6)CSc6ccccc6)c(S(=O)(=O)C(F)(F)F)c5)cc4)CC3)c2)c(-c2ccc(Cl)cc2)n1C(C)C | 3270 | 435 | 44.5 | < 31.6 | < 31.6 |  |  | 76.8 | 81.5 | 83.2 | 63.6 |  | 62.8 | 50.5 | 52.1 | 46.8 | 26.3 | 36.3 | 34.8 | 47.2 | viability, T/C (second compound 0.1 µM, first compound 3.16 µM): 52.7%; viability, T/C (second compound 0.1 µM, first compound 10 µM): 34.3%; viability, T/C [11]: 44.2%; viability, T/C [12]: 54.5%; viability, T/C (second compound 0.316 µM, first compound 3.16 µM): 28.5%; viability, T/C (second compound 0.316 µM, first compound 10 µM): 10.6%; viability, T/C [17]: 46.9%; viability, T/C [18]: 30.7%; viability, T/C (second compound 1 µM, first compound 3.16 µM): 12.8%; viability, T/C (second compound 1 µM, first compound 10 µM): 6.31%; viability, T/C [23]: 33.9%; viability, T/C [24]: 22%; viability, T/C (second compound 3.16 µM, first compound 3.16 µM): 6.64%; viability, T/C (second compound 3.16 µM, first compound 10 µM): 2.64%; viability, T/C [29]: 33.8%; viability, T/C [30]: 17.4%; viability, T/C (second compound 10 µM, first compound 3.16 µM): 13.3%; viability, T/C (second compound 10 µM, first compound 10 µM): 6.24%
O=C(c1ccc(F)c(F)c1Nc1ccc(I)cc1F)N1CC(O)([C@@H]2CCCCN2)C1 + Cc1c(S(C)(=O)=O)c(-c2cc(F)cc(N3CCN(c4ccc(NS(=O)(=O)c5ccc(NC(CCN6CCC(C(=O)OCCCP(=O)(O)O)CC6)CSc6ccccc6)c(S(=O)(=O)C(F)(F)F)c5)cc4)CC3)c2)c(-c2ccc(Cl)cc2)n1C(C)C | 673 | 364 | 350 | 224 | 342 | 85.4 | 85.7 | 85 | 72.4 | 80.5 | 34.2 | 76.3 | 64.4 | 67.5 | 66.4 | 69 | 56.6 | 59.7 | 57.1 | 78.8 | viability, T/C [8]: 76.7%; viability, T/C [11]: 55.9%; viability, T/C [12]: 19.9%; viability, T/C [13]: 61.1%; viability, T/C [14]: 66%; viability, T/C [17]: 50.8%; viability, T/C [18]: 13.4%; viability, T/C [19]: 57.1%; viability, T/C [20]: 60.7%; viability, T/C [23]: 45.9%; viability, T/C [24]: 8.31%; viability, T/C [25]: 40.2%; viability, T/C [26]: 44.9%; viability, T/C [29]: 52.2%; viability, T/C [30]: 4.51%
